In ChEMBL document CHEMBL5244275, “Geminal Diheteroatomic Motifs: Some Applications of Acetals, Ketals, and Their Sulfur and Nitrogen Homologues in Medicinal Chemistry and Drug Design” (J Med Chem, 2021):
In brackets after ≈: the same amount, converted by molar mass.

System: not listed separately
Assay: Stability of the compound in 1M HCL buffer assessed as drug degradation by measuring rate constant by FRET-based assay
Type: physicochemical
Settings: not given

K	SMILES
4.61 10^-6/s	COc1cc(/N=N/c2ccc([N+](=O)[O-])cc2)c(OC)cc1/N=N/c1ccc(N(C)CCCC(=O)NCCSC2CC(=O)N(CCC3OCC(C(=O)NCCCNC(=O)c4ccc(-c5c6ccc(=[N+](C)C)cc-6oc6cc(N(C)C)ccc56)c(C(=O)[O-])c4)O3)C2=O)cc1 (stereo not drawn)
3.8 10^-7/s	COc1cc(/N=N/c2ccc([N+](=O)[O-])cc2)c(OC)cc1/N=N/c1ccc(N(C)CCCC(=O)NCCSC2CC(=O)N(CC3OCC(C(=O)NCCCNC(=O)c4ccc(C(=O)[O-])c(-c5c6ccc(=[N+](C)C)cc-6oc6cc(N(C)C)ccc56)c4)CO3)C2=O)cc1 (stereo not drawn)
2.28 10^-6/s	COc1cc(/N=N/c2ccc([N+](=O)[O-])cc2)c(OC)cc1/N=N/c1ccc(N(C)CCCC(=O)NCCSC2CC(=O)N(CCC3OCC(C(=O)NCCCNC(=O)c4ccc(-c5c6ccc(=[N+](C)C)cc-6oc6cc(N(C)C)ccc56)c(C(=O)[O-])c4)CO3)C2=O)cc1 (stereo not drawn)
3.06 10^-7/s	COc1cc(/N=N/c2ccc([N+](=O)[O-])cc2)c(OC)cc1/N=N/c1ccc(N(C)CCCC(=O)NCCSC2CC(=O)N(CC3CCC(C(=O)NCCCNC(=O)c4ccc(C(=O)[O-])c(-c5c6ccc(=[N+](C)C)cc-6oc6cc(N(C)C)ccc56)c4)CC3)C2=O)cc1 (stereo not drawn)
1.59 10^-6/s	COc1cc(/N=N/c2ccc([N+](=O)[O-])cc2)c(OC)cc1/N=N/c1ccc(N(C)CCCC(=O)NCCSC2CC(=O)N(CC3OCC(C(=O)NCCCNC(=O)c4ccc(C(=O)[O-])c(-c5c6ccc(=[N+](C)C)cc-6oc6cc(N(C)C)ccc56)c4)O3)C2=O)cc1 (stereo not drawn)

System: not listed separately
Assay: Stability of the compound assessed as compound hydrolysis by measuring rate constant by NMR spectroscopic analysis
Type: physicochemical
Settings: not given

K	SMILES
7.33 10^-4No_unit	C=CC1(C)CCC(C)(C)CC1
0	CC(Cl)C1(C)OCCO1 (stereo not drawn)
2.25 10^-6No_unit	CC(Cl)C1(C)CCCCC1 (stereo not drawn)
9.9 10^-3No_unit	C=CC1(C)CCCCC1
8.8 10^-4No_unit	C=CC1(C)OCCO1
0	CC(Cl)C1(C)CCC(C)(C)CC1 (stereo not drawn)

System: PC-6
Assay: Growth inhibition of human PC-6 cells
Type: functional
Settings: not given

SMILES	GI50 [ng/mL]
CC(=O)O[C@@]12CO[C@@H]1CC[C@@]1(C)[C@@H]3O[C@H](CN(C)C)O[C@@H]3C3=C(C)[C@@H](OC(=O)[C@H](O)[C@@H](NC(=O)OC(C)(C)C)c4ncccc4F)C[C@@](O)([C@@H](OC(=O)c4ccccc4)[C@@H]12)C3(C)C [TESETAXEL]	0.38 (≈ 0.431 nM)
CC(=O)O[C@@]12CO[C@@H]1CC[C@@]1(C)[C@@H]3O[C@H](CN4CCOCC4)O[C@@H]3C3=C(C)[C@@H](OC(=O)[C@H](O)[C@@H](NC(=O)OC(C)(C)C)c4ncccc4F)C[C@@](O)([C@@H](OC(=O)c4ccccc4)[C@@H]12)C3(C)C	0.29 (≈ 0.314 nM)
CC(=O)O[C@@]12CO[C@@H]1CC[C@@]1(C)[C@H]3OC(C)(C)O[C@@H]3C3=C(C)[C@@H](OC(=O)[C@H](O)[C@@H](NC(=O)OC(C)(C)C)c4ccccn4)C[C@@](O)([C@@H](OC(=O)c4ccccc4)[C@@H]12)C3(C)C	0.33 (≈ 0.395 nM)
CC(=O)O[C@@]12CO[C@@H]1C[C@H](O)[C@@]1(C)C(=O)[C@H](O)C3=C(C)[C@@H](OC(=O)[C@H](O)[C@@H](NC(=O)OC(C)(C)C)c4ccccc4)C[C@@](O)([C@@H](OC(=O)c4ccccc4)[C@H]21)C3(C)C [DOCETAXEL ANHYDROUS]	1.48 (≈ 1.83 nM)
CC(=O)O[C@H]1C(=O)[C@@]2(C)[C@H]([C@H](OC(=O)c3ccccc3)[C@]3(O)C[C@H](OC(=O)[C@H](O)[C@@H](NC(=O)c4ccccc4)c4ccccc4)C(C)=C1C3(C)C)[C@]1(OC(C)=O)CO[C@@H]1C[C@@H]2O [PACLITAXEL]	1.27 (≈ 1.49 nM)

System: not listed separately
Assay: Growth inhibition of human PC-12 cells
Type: functional, PC12
Settings: not given

SMILES	GI50 [ng/mL]
CC(=O)O[C@@]12CO[C@@H]1CC[C@@]1(C)[C@@H]3O[C@H](CN(C)C)O[C@@H]3C3=C(C)[C@@H](OC(=O)[C@H](O)[C@@H](NC(=O)OC(C)(C)C)c4ncccc4F)C[C@@](O)([C@@H](OC(=O)c4ccccc4)[C@@H]12)C3(C)C [TESETAXEL]	0.62 (≈ 0.703 nM)
CC(=O)O[C@@]12CO[C@@H]1CC[C@@]1(C)[C@@H]3O[C@H](CN4CCOCC4)O[C@@H]3C3=C(C)[C@@H](OC(=O)[C@H](O)[C@@H](NC(=O)OC(C)(C)C)c4ncccc4F)C[C@@](O)([C@@H](OC(=O)c4ccccc4)[C@@H]12)C3(C)C	0.14 (≈ 0.152 nM)
CC(=O)O[C@@]12CO[C@@H]1CC[C@@]1(C)[C@H]3OC(C)(C)O[C@@H]3C3=C(C)[C@@H](OC(=O)[C@H](O)[C@@H](NC(=O)OC(C)(C)C)c4ccccn4)C[C@@](O)([C@@H](OC(=O)c4ccccc4)[C@@H]12)C3(C)C	0.15 (≈ 0.18 nM)
CC(=O)O[C@@]12CO[C@@H]1C[C@H](O)[C@@]1(C)C(=O)[C@H](O)C3=C(C)[C@@H](OC(=O)[C@H](O)[C@@H](NC(=O)OC(C)(C)C)c4ccccc4)C[C@@](O)([C@@H](OC(=O)c4ccccc4)[C@H]21)C3(C)C [DOCETAXEL ANHYDROUS]	42.2 (≈ 52.2 nM)
CC(=O)O[C@H]1C(=O)[C@@]2(C)[C@H]([C@H](OC(=O)c3ccccc3)[C@]3(O)C[C@H](OC(=O)[C@H](O)[C@@H](NC(=O)c4ccccc4)c4ccccc4)C(C)=C1C3(C)C)[C@]1(OC(C)=O)CO[C@@H]1C[C@@H]2O [PACLITAXEL]	539 (≈ 631 nM)

Target: Substance-P receptor (Homo sapiens, UniProt P25103)
Sequence (P25103 whole entry): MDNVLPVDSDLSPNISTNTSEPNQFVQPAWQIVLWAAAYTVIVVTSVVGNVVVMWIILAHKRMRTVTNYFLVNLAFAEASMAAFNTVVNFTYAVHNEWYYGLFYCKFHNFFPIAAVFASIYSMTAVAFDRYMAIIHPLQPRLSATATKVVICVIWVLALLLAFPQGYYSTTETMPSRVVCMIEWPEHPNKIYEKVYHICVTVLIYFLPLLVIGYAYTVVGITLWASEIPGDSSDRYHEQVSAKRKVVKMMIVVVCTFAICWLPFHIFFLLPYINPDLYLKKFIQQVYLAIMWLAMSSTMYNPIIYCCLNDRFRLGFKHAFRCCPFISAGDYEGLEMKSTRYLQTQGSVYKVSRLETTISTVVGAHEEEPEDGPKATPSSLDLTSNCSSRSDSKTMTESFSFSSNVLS
Assay: Displacement of [125I]-labeled SP from human NK-1 receptor expressed in CHO cells
Type: cell-based
Settings: not given

IC50 [nM]	SMILES
0.1	COc1cccc(-n2nnnc2C(F)(F)F)c1[C@H]1CO[C@@]2(C1)OCCN[C@H]2c1ccc(F)cc1
400	Fc1ccc([C@@H]2NCCO[C@]23CC[C@H](c2ccccc2C(F)(F)F)CO3)cc1
28	Fc1ccc([C@@H]2NCCO[C@@]23CC[C@@H](c2ccccc2C(F)(F)F)CO3)cc1
1.1	CN(C)Cc1[nH]nnc1CN1CCO[C@@]2(CC[C@@H](c3ccccc3C(F)(F)F)CO2)[C@@H]1c1ccc(F)cc1
1.4	CN(C)Cc1[nH]nnc1CN1CCO[C@@]2(CC[C@@H](c3ccccc3OC(F)(F)F)CO2)[C@@H]1c1ccc(F)cc1
24	Fc1ccc([C@@H]2NCCO[C@@]23C[C@@H](c2ccccc2C(F)(F)F)CO3)cc1

System: not listed separately
Assay: Oral bioavailability in dog
Type: ADME, organism-based, Canis lupus familiaris
Settings: in vivo

bioavailability [%]	SMILES
64	C[C@@H](c1c[nH]c2ccccc12)[C@H](C(=O)NC[C@H]1OC[C@H](N)CO1)N1CCN(CCC(c2ccccc2)c2ccccc2)C1=O
19	C[C@@H](c1c[nH]c2ccccc12)[C@H](C(=O)NC[C@H]1OC[C@H](N)CO1)N1CCN(CCCc2ccccc2)C1=O

SMILES	bioavailability [%]
FC1CCN(CCc2ccc(C3CCC4(CC3)OOC3(OO4)C4CC5CC(C4)CC3C5)cc2)CC1 (stereo not drawn)	40

System: not listed separately
Assay: Half-life in human plasma
Type: ADME
Settings: not given

SMILES	half-life [h]
N=C(N)NCC1COC2(CCCCC2)O1 (stereo not drawn)	12
N=C(N)NCCN1CCCCCCC1 [GUANETHIDINE]	36

Results, then the molecule that gave them:

half-life [h]	SMILES
12	COC(=O)N[C@H](C(=O)N1CCC[C@H]1c1nc(-c2ccc(-c3ccc(-c4c[nH]c([C@@H]5CCCN5C(=O)[C@@H](NC(=O)OC)C(C)C)n4)cc3)cc2)c[nH]1)C(C)C
7	Cn1c(=O)c2c(ncn2CC2OCCO2)n(C)c1=O [DOXOFYLLINE]
8	COC(=O)N[C@H](C(=O)N1CCC[C@H]1c1ncc(-c2ccc(-c3ccc(-c4cnc([C@@H]5CC6(CN5C(=O)[C@@H](NC(=O)OC)C(C)C)OCCO6)[nH]4)cc3)cc2)[nH]1)C(C)C

System: not listed separately
Assay: Oral bioavailability in rat
Type: ADME, organism-based
Settings: in vivo

SMILES	bioavailability [%]
c1cc([C@H]2CC[C@]3(CC2)OOC2(O3)C3CC4CC(C3)CC2C4)ccc1OCCN1CCOCC1 (stereo partly drawn)	76
FC1CCN(CCc2ccc(C3CCC4(CC3)OOC3(OO4)C4CC5CC(C4)CC3C5)cc2)CC1 (stereo not drawn)	62

System: not listed separately
Assay: Chemical stability of the compound assessed as acid-catalyzed hydrolysis by measuring rate constant
Type: physicochemical
Settings: not given

Drug metabolism	SMILES
0.29 10^-3L/mol/min	Nc1ncnc2c1ncn2[C@@H]1O[C@H](CO)[C@H](O)[C@H]1O
9.6 10^-3L/mol/min	Nc1ncnc2c1ncn2[C@@H]1O[C@H](CO)[C@H](O)[C@@H]1O
0.96 L/mol/min	Nc1ncnc2c1ncn2[C@H]1C[C@H](O)[C@@H](CO)O1 [DEOXYADENOSINE]
0.057 L/mol/min	Nc1ncnc2c1ncn2[C@@H]1O[C@H](CO)C[C@@H]1O

System: not listed separately
Assay: Oral bioavailability in mouse
Type: ADME, organism-based
Settings: in vivo

SMILES	bioavailability [%]
FC1CCN(CCc2ccc(C3CCC4(CC3)OOC3(OO4)C4CC5CC(C4)CC3C5)cc2)CC1 (stereo not drawn)	82

System: not listed separately
Assay: Oral bioavailability in human
Type: ADME, organism-based
Settings: in vivo

bioavailability [%]	SMILES
63	Cn1c(=O)c2c(ncn2CC2OCCO2)n(C)c1=O [DOXOFYLLINE]
